Square brackets hold non-standard residues; d marks the D form. Peptide text beside a SMILES is read from it. Oic = O=C(O)[C@@H]1C[C@@H]2CCCC[C@@H]2N1; d2Nal = N[C@H](Cc1ccc2ccccc2c1)C(=O)O; αMeF = C[C@](N)(Cc1ccccc1)C(=O)O; Orn = NCCC[C@H](N)C(=O)O
Key:
aminopeptidase P (AmP) = target: T1, aminopeptidase P (AmP) (Homo sapiens, UniProt Q9NQW7); assay: In vitro metabolic stability against human platelets AmP; type: in vitro ADME; settings: mean ± SEM of 3 experiments
T1 construct: from tissue; host or cells: human platelets, freeze-thawed and sonicated, 43 000 x g supernatant
Description: These assays were performed using three enzyme preparations: purified angiotensin converting enzyme (ACE; from rabbit lung), human plasma as a, source of aminopeptidase M (AmM) and human platelets as a source of aminopeptidase P (AmP).
Human platelet AmP was prepared as described by Maggiora et al. (1999, J Med Chem 42, 2394–2402). Human platelets (40 ml) were centrifuged at 250×g for 7 min at room temperature. The resulting supernatant was recentrifuged at 2790×g for 15 min at room temperature. Pellets were collected, resuspended in 40 ml of phosphate-buffered saline (PBS) containing 3.5% of sodium citrate, and then re-centrifuged at 2790×g for 15 min at room temperature. This washing step was repeated. Pellets were resuspended in 4 ml of PBS-sodium citrate, snap-frozen in liquid nitrogen, thawed at 37° C., sonicated briefly, and then centrifuged at 43 000×g for 2 h at 4° C. (Sorvall RC 5B, ss-34 rotor). The resulting supernatant was used for enzyme assays as described in Neugebauer et al. (Neugebauer et al. 2002, supra).

[1] = Ex vivo stability in rat tissue extracts from liver, lung and kidney (HPLC); type: in vitro ADME; settings: Wistar, after 24 hours, read-out: parent remaining
Description: Liver, lung and kidneys were collected from Wistar rats and resuspended in nine volume of PBS. The tissues were homogenized for 3×15 sec. on ice with a Polytron homogenizer and were centrifuged at 3000 rpm for 15 min. at 4° C. The supernatant was collected and kept at −80° C. until used.
Stability studies were initiated by adding the peptide […] to 50–100 μl of either plasma, serum or extract (10–100 μM final concentration) and incubated for 10 min to 24 hours at 37° C. The reaction was stopped by the addition of ice-cold acetonitrile (75% final concentration) containing 10 μM Lys-desArg^9BK (which serves as an internal control). The samples were vortexed and centrifuged at 13000 rpm for 20 min at 4° C. in a microfuge. The clear supernatant was transferred to a 1 ml tube and the samples were evaporated to dryness by lyophilisation. Finally, the samples were resuspended in 50 μl of HPLC-grade water.
Quantitative analysis of the extracted compound and standard controls was carried out using an Agilent reverse-phase HPLC (model 1100) coupled to a 4.6×150 mm Zorbax 300SB-C18 column (5 μm particle size) and equipped with a diode array detector. […] The elution positions and quantification of compounds were determined by following the absorbance at 226 nm. […]

[2] = Circulatory half-life in rat plasma after bolus i.v. administration; type: in vivo; settings: iv, 2.5 mg/kg body weight, direct i.v. jugular administration, anaesthetized rats
Description: Rats were anesthetized with the administration of ketamine/xylazine (100 mg/ml:0.1 ml/100 g, i.p.). For ex vivo analysis, blood was collected by cardiac puncture and placed into 5 ml vacutainer tubes containing 0.5 ml of 0.1 M Na2CO3 (for blood and plasma). For in vivo analysis, the drug was administered by i.v. bolus (2.5 mg/kg body weight) in the jugular vein of anesthetized rats and blood was collected as described above after 2, 5, 15, 30, 60, 120, 180 and 240 min.
Quantitative analysis of the extracted compound and standard controls was carried out using an Agilent reverse-phase HPLC (model 1100) coupled to a 4.6×150 mm Zorbax 300SB-C18 column (5 μm particle size) and equipped with a diode array detector. The peptides were eluted at a flow rate of 0.7 ml/min. with a linear gradient ranging from 5 to 65% of acetonitrile/TFA 0.05%/water over 32 min. at 25° C. The elution positions and quantification of compounds were determined by following the absorbance at 226 nm.
Concentrations of the peak's products were estimated using a computer software program (Chemstation for LC 3D, Agilent) that controlled all the chromatography operations.

STZ diabetic mice = assay: Tail flick test, type-1 diabetic hyperalgesia; type: in vivo; settings: STZ diabetic mice, i.p., at time of maximal inhibition (10 min)
Description: Male CD-1 mice weighting between 25–30 g (Charles River Breeding Laboratory, St-Constant, QC, Canada) were used. The mice were housed four by cage with free access to food and water. They were maintained under conditions of standard lighting, (alternating 12-h light/dark cycle), temperature (22±0.5° C.) and humidity (60±10%) with food and water available at libitum. Animals were used only once in a given experiment. Experiments were conducted between 10:00 and 18:00 h.
Streptozotocin (Pharmacia & Upjohn Incorporation, Mississauga, ON, Canada) was dissolved in saline at a pH of 4.5 and administered to mice i.p. The BKB1 agonist desArg^9BK and compound c were dissolved in saline and administered to mice i.p.
Insulin-dependent diabetes mellitus (IDDM) was induced in mice using STZ. Male CD-1 mice were given a single high i.p. dose of STZ (200 mg/kg) (McEvoy et al., 1984, J Clin Invest 74, 715–722). […] Blood glucose levels were determined with an automatic analyzer (Glucometer Elite XL, Bayer Incorporation, Toronto, Ontario, Canada) using glucose oxidase/potassium ferricyanide reagent strips. […]
The tail flick test of D'Amour and Smith (D'Amour and Smith, 1941, J Pharmacol Exp Ther 72, 74–79) modified for mice was used. […] The radiant light is focussed on a blackened spot in the mid region of the animal's tail (2–3 cm from the tip of the tail) and the latency between the application of the stimulation light and the flicking of the animal's tail is recorded. When the animal flicks its tail, its exposes a photocell in the apparatus immediately below the tail and the instrument is automatically stopped and the time is recorded. […]
The effect of the selected drugs on nociception was determined by converting the hot plate, the plantar stimulation, the tail immersion or the tail flick responses from latencies into MPE (Maximum Percent Effect) according to the following equation (Bhargava and Zhao, 1996, Neuropeptides, 30, 219–223): […]

T1 sequence (Q9NQW7 whole entry): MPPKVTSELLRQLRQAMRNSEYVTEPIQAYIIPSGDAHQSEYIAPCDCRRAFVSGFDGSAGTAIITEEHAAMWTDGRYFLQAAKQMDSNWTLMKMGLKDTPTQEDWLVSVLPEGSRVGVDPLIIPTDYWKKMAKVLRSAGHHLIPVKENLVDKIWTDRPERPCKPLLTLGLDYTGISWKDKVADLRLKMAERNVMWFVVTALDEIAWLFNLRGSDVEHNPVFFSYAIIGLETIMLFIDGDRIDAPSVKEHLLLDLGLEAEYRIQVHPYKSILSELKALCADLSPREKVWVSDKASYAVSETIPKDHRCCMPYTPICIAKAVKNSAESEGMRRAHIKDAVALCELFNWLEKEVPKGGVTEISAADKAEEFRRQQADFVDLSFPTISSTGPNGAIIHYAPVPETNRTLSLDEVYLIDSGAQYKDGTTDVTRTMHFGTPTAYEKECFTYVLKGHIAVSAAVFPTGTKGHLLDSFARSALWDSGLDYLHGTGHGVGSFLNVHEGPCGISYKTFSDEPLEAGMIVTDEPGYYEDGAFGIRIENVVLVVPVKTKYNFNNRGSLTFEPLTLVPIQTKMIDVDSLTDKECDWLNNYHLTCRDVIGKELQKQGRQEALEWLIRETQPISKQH

SMILES	Peptide metabolism (%) Human platelets AmP (aminopeptidase P (AmP)) [%]	remaining at 24 h [1] [%]	half-life [2] [min]	ID50 (STZ diabetic mice) [µg/kg]
CC[C@H](C)[C@H](NC(=O)[C@@H](Cc1ccc2ccccc2c1)NC(=O)[C@H](CO)NC(=O)[C@](C)(Cc1ccccc1)NC(=O)CNC(=O)[C@@H]1CCCN1C(=O)[C@@H]1C[C@@H]2CCCC[C@@H]2N1C(=O)[C@H](CCCNC(=N)N)NC(=O)[C@H](CCCN)NC(C)=O)C(=O)O [compound c, Ac-Orn[Oic^2,(α-Me)Phe^5,D-βNal^7,Ile^8]desArg^9BK] (Ac-[Orn]R[Oic]PG[αMeF]S[d2Nal]I-OH)	12 ± 2	> 75	> 120	72 ± 2
CC[C@H](C)[C@H](NC(=O)[C@@H](Cc1ccc2ccccc2c1)NC(=O)[C@H](CO)NC(=O)[C@](C)(Cc1ccccc1)NC(=O)CNC(=O)[C@@H]1CCCN1C(=O)[C@@H]1C[C@@H]2CCCC[C@@H]2N1C(=O)[C@H](CCCNC(=N)N)NC(=O)[C@H](CCCCN)NC(C)=O)C(=O)O [Ac-Lys[Oic^2,(α-Me)Phe^5,D-βNal^7,Ile^8]desArg^9BK] (Ac-KR[Oic]PG[αMeF]S[d2Nal]I-OH)	12 ± 4			
